From patent US20170210741A1, “Benzimidazole Compounds, Use As Inhibitors of WNT Signaling Pathway in Cancers, and Methods for Preparation Thereof” (Southern Research Institute, priority 2016, published 2017) come the findings set out here.

Where two headings read alike, the source gives them in different places.

What all share (assay type): cell-based
Experiment [1] relates to HT-29. The experiment is described as follows: In vitro cell viability assay (Cell Titer Glo), colorectal cancer HT-29. The note with it: Homo sapiens, 72 h. As for the experimental part: (§1) Breast cancer SUM159 was obtained from Asterand and grown according to supplier's recommendation. All other cell lines were obtained from ATCC and cultured in standard cell culture conditions with complete cell culture medium containing 10% FBS.
(§2) Cancer cells were seeded into optically clear tissue culture-treated black 96-well plates (for adherent cells) or low-attachment 96-well plates (for cancer stem cells) at 2,000-5000 cells/50 μL of media per well. The cells were treated with Wnt inhibitors at 0.1 to 10 μM for 72 h. Cell viability was measured by the Cell Titer Glo Assay from Promega.
(§3) Table 4 below illustrates the effects of the disclosed compounds on cell viability of colorectal cancer cell lines.
On the technique in general: In ATP-based viability assays light output follows the ATP content of the culture.

The subject of experiment [2] is HCT116. The experiment is described as follows: In vitro cell viability assay (Cell Titer Glo), colorectal cancer HCT116. To be noted: Homo sapiens, HCT-116, 72 h. As for the experimental part: as §1, §2, §3
Experiment [3] has as its system Suit-2. The experiment is described as follows: In vitro cell viability assay (Cell Titer Glo), pancreatic cancer Suit-2. To be noted: 72 h. How it is done: as §1, §2
Experiment [4] deals with S2VP10. In words: In vitro cell viability assay (Cell Titer Glo), pancreatic cancer S2VP10. To be noted: 72 h. As for the experimental part: as §1, §2
Experiment [5] has as its system Wnt signaling. The experiment is described as follows: Wnt signaling reporter assay (Super8XTOPFlash luciferase) in LRP6-expressing HEK293 cells. The note with it: 24 h treatment, luciferase normalized to β-galactosidase; for IC50: Homo sapiens, read-out: IC50 (effects on Wnt signaling). As for the experimental part: HEK293 cells were plated into 24-well plates. After overnight culture, the cells were transiently transfected with 0.06 μg of the Super8XTOPFlash luciferase construct, 0.06 μg of β-galactosidase-expressing vector, and 0.06 μg of pCS-Myc-hLRP6 or control vector. After 24 h incubation, cells were treated with each individual compound in triplicate for 24 h. Cells were then lysed, and the luciferase and β-galactosidase activities were determined by the luciferase assay system (Promega) and β-galactosidase assay system (Promega), respectively. The luciferase activity was normalized to the β-galactosidase activity.
Table 2 below illustrates the effects of the disclosed compounds on Wnt signaling in LRP6-expressing HEK293 cells.
For orientation: A reporter such as luciferase makes a cellular process visible.

Where [6] appears, read: HT-29, CSC conditions, read-out: Cell viability (IC50) HT-29 CSC.
The mark [7] stands for this setting: HT-29, adherent, read-out: Cell viability (IC50) HT-29 Adherent.
Setting [8] is: HCT116, CSC conditions, read-out: Cell viability (IC50) HCT116 CSC.
[9] abbreviates: HCT116, adherent, read-out: Cell viability (IC50) HCT116 Adherent.
Setting [10] is: Suit-2, CSC enriching serum free medium, non-adherent plates, read-out: Cell viability (IC50) Suit-2 CSC.
The mark [11] stands for this setting: Suit-2, adherent, complete medium 10% FBS, read-out: Cell viability (IC50) Suit-2 Adherent.
The mark [12] stands for this setting: S2VP10, CSC enriching serum free medium, non-adherent plates, read-out: Cell viability (IC50) S2VP10 CSC.
Setting [13] is: S2VP10, adherent, complete medium 10% FBS, read-out: Cell viability (IC50) S2VP10 Adherent.

In general, IC50 refers to the concentration at which inhibition is half-maximal. As for `Clc1cc2nc(-c3ccc(N4CCCC4)cc3)[nH]c2cc1Cl` [Compound 12, 5,6-dichloro-2-(4-(pyrrolidin-1-yl)phenyl)-1H-benzo[d]imidazole], the IC50 in experiment [1] (setting [6]) is 510 nM; in experiment [1] (setting [7]), 840 nM; in experiment [2] (setting [8]), 2680 nM; in experiment [2] (setting [9]) it was 1180 nM; in experiment [3] (setting [10]), above 10000 nM; in experiment [3] (setting [11]) it was 2100 nM. Also, the half-maximal inhibitory concentration (IC50) in experiment [4] (setting [12]) was above 10000 nM; in experiment [4] (setting [13]), 2580 nM; in experiment [5] it was 0.93 nM.

`Clc1cc2nc(-c3ccc(N4CCNCC4)cc3)[nH]c2cc1Cl` [Compound 13, 5,6-dichloro-2-(4-(piperazin-1-yl)phenyl)-1H-benzo[d]imidazole]: the IC50 in experiment [3] (setting [10]), in experiment [3] (setting [11]), in experiment [4] (setting [12]) and in experiment [4] (setting [13]) was above 10000 nM throughout.

Regarding `Oc1ccc(Cl)cc1-c1nc2cc(Cl)c(Cl)nc2[nH]1` [Compound 9, 4-Chloro-2-(5,6-dichloro-3H-imidazo[4,5-b]pyridin-2-yl)phenol], the IC50 in experiment [1] (setting [6]) was 8950 nM; in experiment [1] (setting [7]) it was 9760 nM; in experiment [2] (setting [8]), 510 nM; in experiment [2] (setting [9]), 2090 nM; in experiment [3] (setting [10]), above 10000 nM; in experiment [3] (setting [11]), above 10000 nM. Further, the IC50 is 870 nM in experiment [4] (setting [12]), 2240 nM in experiment [4] (setting [13]) and 1850 nM in experiment [5].

With `CCN1CCN(c2ccc(-c3nc4cc(Cl)c(Cl)cc4[nH]3)cc2)CC1` [Compound 14, 5,6-dichloro-2-(4-(4-ethylpiperazin-1-yl)phenyl)-1H-benzo[d]imidazole], the half-maximal inhibitory concentration (IC50) in experiment [3] (setting [10]) is 1230 nM; in experiment [3] (setting [11]), above 10000 nM; in experiment [4] (setting [12]) it was 1330 nM; in experiment [4] (setting [13]), above 10000 nM.

Consider `CN1CCN(c2ccc(-c3nc4ccc(F)cc4[nH]3)cc2)CC1` [Compound 19, 6-fluoro-2-(4-(4-methylpiperazin-1-yl)phenyl)-1H-benzo[d]imidazole], for which the IC50 was 330 nM in experiment [3] (setting [10]), 1340 nM in experiment [3] (setting [11]), 350 nM in experiment [4] (setting [12]) and 790 nM in experiment [4] (setting [13]). Moreover, in experiment [5], the “IC50 (effects on Wnt signaling)” value is listed as “Inactive”.

Take `Fc1cc2nc(-c3ccc(OC(F)(F)F)cc3)[nH]c2cc1Cl` [Compound 24, 6-chloro-5-fluoro-2-(4-(trifluoromethoxy)phenyl)-1H-benzo[d]imidazole]: the “IC50 (effects on Wnt signaling)” value in experiment [5] is “Inactive”.

Consider `Cc1nccn1-c1ccc(-c2nc3cc(Cl)c(Cl)cc3[nH]2)cc1` [Compound 16, 5,6-dichloro-2-(4-(2-methyl-1H-imidazol-1-yl)phenyl)-1H-benzo[d]imidazole], for which the IC50 in experiment [3] (setting [10]), in experiment [3] (setting [11]), in experiment [4] (setting [12]) and in experiment [4] (setting [13]) was above 10000 nM each time.

Consider `CN1CCN(c2ccc(-c3nc4ccc(C(F)(F)F)cc4[nH]3)cc2)CC1` [Compound 18, 2-(4-(4-methylpiperazin-1-yl)phenyl)-6-(trifluoromethyl)-1H-benzo[d]imidazole], for which the IC50 in experiment [3] (setting [10]) is 760 nM; in experiment [3] (setting [11]) it was above 10000 nM; in experiment [4] (setting [12]) it was 1520 nM; in experiment [4] (setting [13]) it was 7160 nM. In addition, the “IC50 (effects on Wnt signaling)” value in experiment [5] is given as “Inactive”.

As for `Clc1cc2nc(-c3ccc(-n4ccnc4)cc3)[nH]c2cc1Cl` [Compound 15, 2-(4-(1H-imidazol-1-yl)phenyl)-5,6-dichloro-1H-benzo[d]imidazole], the IC50 in experiment [3] (setting [10]) is 1810 nM; in experiment [3] (setting [11]), above 10000 nM; in experiment [4] (setting [12]), 1340 nM; in experiment [4] (setting [13]), above 10000 nM.

As for `Clc1cc2nc(-c3ccc(N4CCCCC4)cc3)[nH]c2nc1Cl` [Compound 33, 5,6-dichloro-2-(4-(piperidin-1-yl)phenyl)-3H-imidazo[4,5-b]pyridine], the IC50 in experiment [3] (setting [10]), in experiment [3] (setting [11]), in experiment [4] (setting [12]) and in experiment [4] (setting [13]) was above 10000 nM throughout. The “IC50 (effects on Wnt signaling)” value in experiment [5] is “Inactive”.

Regarding `FC(F)(F)c1cc2nc(-c3ccc(N4CCCC4)cc3)[nH]c2cc1Cl` [Compound 32, 6-chloro-2-(4-(pyrrolidin-1-yl)phenyl)-5-(trifluoromethyl)-1H-benzo[d]imidazole], the IC50 in experiment [3] (setting [10]) was 1100 nM; in experiment [3] (setting [11]), 3870 nM; in experiment [4] (setting [12]), 600 nM; in experiment [4] (setting [13]), 5200 nM. The “IC50 (effects on Wnt signaling)” value in experiment [5] was “Inactive”.

Turning to `Fc1cc2[nH]c(-c3ccc(OC(F)(F)F)cc3)nc2cc1C(F)(F)F` [Compound 25, 6-fluoro-2-(4-(trifluoromethoxy)phenyl)-5-(trifluoromethyl)-1H-benzo[d]imidazole], the IC50 in experiment [3] (setting [10]) was found to be 2050 nM; in experiment [3] (setting [11]), 5630 nM; in experiment [4] (setting [12]) it was 2770 nM; in experiment [4] (setting [13]) it was 7200 nM. Moreover, in experiment [5], the “IC50 (effects on Wnt signaling)” value is “Inactive”.

On to `FC(F)(F)c1cc(Cl)c2[nH]c(-c3ccc(N4CCCC4)cc3)nc2c1` [Compound 35, 7-chloro-2-(4-(pyrrolidin-1-yl)phenyl)-5-(trifluoromethyl)-1H-benzo[d]imidazole], for which the IC50 in experiment [3] (setting [10]) is 240 nM; in experiment [3] (setting [11]), 9060 nM; in experiment [4] (setting [12]), 150 nM; in experiment [4] (setting [13]), above 10000 nM. Further, the “IC50 (effects on Wnt signaling)” value in experiment [5] is reported as “Inactive”.

In the case of `FC(F)(F)c1cc2nc(-c3ccc(N4CCCCC4)cc3)[nH]c2cc1Cl` [Compound 37, 6-chloro-2-(4-(piperidin-1-yl)phenyl)-5-(trifluoromethyl)-1H-benzo[d]imidazole], the concentration for half-maximal inhibition (IC50) came out at 550 nM in experiment [3] (setting [10]), 5330 nM in experiment [3] (setting [11]) and 9250 nM in experiment [4] (setting [13]). The “IC50 (effects on Wnt signaling)” value in experiment [5] is reported as “Inactive”.

With `FC(F)(F)c1cc(Cl)c2[nH]c(-c3ccc(N4CCCCC4)cc3)nc2c1` [Compound 36, 7-chloro-2-(4-(piperidin-1-yl)phenyl)-5-(trifluoromethyl)-1H-benzo[d]imidazole], the IC50 was 2530 nM in experiment [3] (setting [10]), 8660 nM in experiment [3] (setting [11]), 2950 nM in experiment [4] (setting [12]) and above 10000 nM in experiment [4] (setting [13]). For the same molecule, the “IC50 (effects on Wnt signaling)” value in experiment [5] was “Inactive”.

As to `Clc1cc2nc(-c3ccc(N4CCCC4)cc3)[nH]c2nc1Cl` [Compound 34, 5,6-dichloro-2-(4-(pyrrolidin-1-yl)phenyl)-3H-imidazo[4,5-b]pyridine], the IC50 in experiment [3] (setting [10]), in experiment [3] (setting [11]), in experiment [4] (setting [12]) and in experiment [4] (setting [13]) was above 10000 nM in each case. Moreover, in experiment [5], the “IC50 (effects on Wnt signaling)” value is reported as “Inactive”.

Consider `c1cc2nc(-c3ccc(N4CCCCC4)cc3)[nH]c2cn1` [Compound 30, 2-(4-(piperidin-1-yl)phenyl)-3H-imidazo[4,5-c]pyridine], for which the IC50 is 70 nM in experiment [3] (setting [10]), 80 nM in experiment [3] (setting [11]) and 60 nM in experiment [4] (setting [13]). In addition, the “IC50 (effects on Wnt signaling)” value in experiment [5] is given as “Inactive”.

With `FC(F)(F)c1ccc2[nH]c(-c3ccc(N4CCCCC4)cc3)nc2c1` [Compound 29, 2-(4-(piperidin-1-yl)phenyl)-5-(trifluoromethyl)-1H-benzo[d]imidazole], the IC50 was 1420 nM in experiment [3] (setting [10]), 7560 nM in experiment [3] (setting [11]), 1080 nM in experiment [4] (setting [12]) and above 10000 nM in experiment [4] (setting [13]). For the same molecule, the “IC50 (effects on Wnt signaling)” value in experiment [5] is listed as “Inactive”.

With `Cn1c(-c2ccc(OC(F)(F)F)cc2)nc2cc(Cl)c(Cl)cc21` [Compound 23, 5,6-dichloro-1-methyl-2-(4-(trifluoromethoxy)phenyl)-1H-benzo[d]imidazole], the “IC50 (effects on Wnt signaling)” value in experiment [5] was “Inactive”.

In the case of `CN1CCN(c2ccc(-c3nc4ccncc4[nH]3)cc2)CC1` [Compound 20, 2-(4-(4-methylpiperazin-1-yl)phenyl)-3H-imidazo[4,5-c]pyridine], the IC50 was 210 nM in experiment [3] (setting [10]), 290 nM in experiment [3] (setting [11]), 180 nM in experiment [4] (setting [12]) and 140 nM in experiment [4] (setting [13]). Further, the “IC50 (effects on Wnt signaling)” value in experiment [5] is given as “Inactive”.

On to `FC(F)(F)Oc1ccc(-c2nc3cc(C(F)(F)F)c(Cl)cc3[nH]2)cc1` [Compound 26, 6-chloro-2-(4-(trifluoromethoxy)phenyl)-5-(trifluoromethyl)-1H-benzo[d]imidazole], for which the IC50 in experiment [3] (setting [10]) stood at 860 nM; in experiment [3] (setting [11]), 6440 nM; in experiment [4] (setting [12]), 950 nM; in experiment [4] (setting [13]), 6920 nM. Moreover, in experiment [5], the “IC50 (effects on Wnt signaling)” value was “Inactive”.
